Source: ChEMBL document CHEMBL1158352, “Development of CoMFA and CoMSIA models of cytotoxicity data of anti-HIV-1-phenylamino-1H-imidazole derivatives” (Eur J Med Chem, 2009)

Test: Cytotoxicity against human MT4 cells
Type: cell-based

| Compound | CC50 |
| --- | --- |
| CCc1[nH]c(=S)n(Nc2cccc(C)c2)c1-c1ccccc1 | 53.6 µM |
| Cc1[nH]c(=S)n(Nc2cccc(Cl)c2)c1-c1ccccc1 | 66.7 µM |
| Cc1ncn(Nc2cccc(Cl)c2)c1-c1cccc(Cl)c1 | 11.9 µM |
| Cc1ncn(Nc2cccc(Cl)c2)c1-c1cccc(Br)c1 | 16.4 µM |
| Cc1[nH]c(=S)n(Nc2cccc(Cl)c2)c1-c1ccc(Cl)cc1 | 40.8 µM |
| Cc1ncn(Nc2ccccc2)c1-c1ccccc1 | 52.1 µM |
| Cc1[nH]c(=S)n(Nc2cccc(Br)c2)c1-c1ccccc1 | 44.3 µM |
| CCc1ncn(Nc2cccc(C)c2)c1-c1ccccc1 | 27.9 µM |
| Cc1cccc(Nn2c(S)nc(C)c2-c2cccc(C#N)c2)c1 | 45.6 µM |
| COc1ccc(-c2c(C)[nH]c(=S)n2Nc2cccc(Cl)c2)cc1 | 38.7 µM |
| Cc1nc(S)n(Nc2cccc(Cl)c2)c1-c1cccc(C#N)c1 | 99.3 µM |
| COc1cccc(Nn2cnc(C)c2-c2ccccc2)c1 | 34.4 µM |
| COC(=O)c1cccc(-c2c(C)nc(S)n2Nc2cccc(Cl)c2)c1 | 67.3 µM |
| Cc1[nH]c(=S)n(Nc2cccc(F)c2)c1-c1ccccc1 | 109 µM |
| Cc1ncn(Nc2cccc(Cl)c2)c1-c1cccc(C(=O)O)c1 | 161 µM |
| CCc1ccc(Nn2c(S)nc(C)c2-c2ccccc2)cc1 | 34.4 µM |
| COC(=O)c1cccc(-c2c(C)ncn2Nc2cccc(Cl)c2)c1 | 33.1 µM |
| Cc1nc(S)n(Nc2cccc(Cl)c2)c1-c1ccc(Br)cc1 | 33.2 µM |
| Clc1cccc(Nn2cnc3c2CCCC3)c1 | 67.3 µM |
| Cc1cccc(Nn2c(S)nc(C)c2-c2cccc(C(=O)O)c2)c1 | 187 µM |

| Compound | CC50 |
| --- | --- |
| Cc1[nH]c(=S)n(Nc2ccccc2Cl)c1-c1ccccc1 | 162 µM |
| Cc1cccc(Nn2cnc(C)c2-c2cccc(N)c2)c1 | 163 µM |
| Cc1ncn(Nc2cccc(Cl)c2)c1-c1cccc(C#N)c1 | 36.8 µM |
| Cc1ncn(Nc2cccc(Cl)c2)c1-c1ccccc1 | 17.5 µM |
| Cc1nc(S)n(Nc2cccc(Cl)c2)c1-c1cccc(N)c1 | 42.2 µM |
| Cc1[nH]c(=S)n(Nc2ccc(F)cc2)c1-c1ccccc1 | 220 µM |
| Cc1nc(S)n(Nc2cccc(Cl)c2)c1-c1cccc(C(=O)O)c1 | 120 µM |
| Cc1nc(S)n(Nc2cccc(Cl)c2)c1C | 259 µM |
| Cc1cccc(Nn2cnc(C)c2-c2ccccc2)c1 | 27 µM |
| Cc1ccc(Nn2c(-c3ccccc3)c(C)[nH]c2=S)cc1C | 55.6 µM |
| Sc1nc(-c2ccccc2)c(-c2ccccc2)n1Nc1cccc(Cl)c1 | 36.3 µM |
| COC(=O)c1nc(S)n(Nc2cccc(Cl)c2)c1C | 48.8 µM |
| Cc1ncn(Nc2cccc(Cl)c2)c1-c1cccc(N)c1 | 261 µM |
| Cc1cc(C)cc(Nn2cnc(C)c2-c2ccccc2)c1 | 20.4 µM |
| Cc1ncn(Nc2ccccc2)c1C | 352 µM |
| CCc1[nH]c(=S)n(Nc2cccc(Cl)c2)c1-c1ccccc1 | 39 µM |
| COC(=O)c1c(C)ncn1Nc1cccc(Cl)c1 | 107 µM |
| Cc1nc(S)n(Nc2ccccc2)c1C | 181 µM |
| Sc1nc2c(n1Nc1cccc(Cl)c1)CCCC2 | 126 µM |
| CSc1ccc(Nn2c(S)nc(C)c2-c2ccccc2)cc1 | 53.1 µM |

| Compound | CC50 |
| --- | --- |
| Cc1[nH]c(=S)n(Nc2ccccc2)c1-c1ccccc1 | 191 µM |
| Cc1[nH]c(=S)n(Nc2cccc([N+](=O)[O-])c2)c1-c1ccccc1 | 48.3 µM |
| Cc1nc(S)n(Nc2cccc3ccccc23)c1-c1ccccc1 | 12 µM |
| COc1cccc(Nn2c(S)nc(C)c2-c2ccccc2)c1 | 38 µM |
| Cc1[nH]c(=S)n(Nc2cccc(Cl)c2)c1-c1cccc(Br)c1 | 44 µM |
| Cc1nc(S)n(Nc2cc(Cl)ccc2Cl)c1-c1ccccc1 | 147 µM |
| Cc1cccc(Nn2c(-c3ccccc3)c(C)[nH]c2=S)c1 | 88.3 µM |
| Cc1cc(C)cc(Nn2c(-c3ccccc3)c(C)[nH]c2=S)c1 | 194 µM |
| Cc1[nH]c(=S)n(Nc2cccc(Cl)c2)c1-c1cccc(Cl)c1 | 31 µM |
| Cc1ccc(Nn2c(-c3ccccc3)c(C)[nH]c2=S)cc1Cl | 44.3 µM |
| Cc1ncn(Nc2ccc(F)cc2)c1-c1ccccc1 | 30.8 µM |
| COC(=O)c1c(C)nc(S)n1Nc1cccc(Cl)c1 | 190 µM |
| Cc1cccc(Nn2cnc(C)c2C)c1 | 312 µM |
| Cc1c(-c2ccccc2)nc(S)n1Nc1cccc(Cl)c1 | 50 µM |
| Cc1cccc(Nn2c(-c3ccccc3)c(C(C)C)[nH]c2=S)c1 | 42.7 µM |
| Cc1nc(S)n(Nc2cccc(Cl)c2)c1C(=O)O | 265 µM |
| Cc1[nH]c(=S)n(Nc2ccc(Cl)cc2)c1-c1ccccc1 | 135 µM |
| Cc1ncn(Nc2cccc(Cl)c2)c1C | 214 µM |
| Cc1cccc(Nn2cnc(C)c2-c2cccc(C#N)c2)c1 | 44.7 µM |
| Cc1cccc(Nn2c(S)nc(C)c2C)c1 | 360 µM |
